ChEMBL document CHEMBL3244207, “Synthesis and antiallergic activity of 2-hydroxy-3-nitro-1,4-naphthoquinones” (1977)
The source made the active and inactive calls. No cut-off for these calls is given here.

Test system: Rattus norvegicus
Experiment: Antiallergic activity in Wistar rat assessed as inhibition of passive cutaneous anaphylaxis up to 500 uM/kg, sc
Assay type: functional, organism-based

| SMILES | inhibition |
| --- | --- |
| Cc1c(O)c([N+](=O)[O-])c(O)c2ccccc12 | inactive |
| CC1(C)C(=O)C([N+](=O)[O-])=C(O)c2ccccc21 | inactive |
| Cc1ccc2c(c1)C(O)=C([N+](=O)[O-])C(=O)C2(C)C | inactive |
| Cc1cccc2c1C(C)(C)C(=O)C([N+](=O)[O-])=C2O | inactive |

Test system: Rattus norvegicus
Experiment: Antiallergic activity in sc dosed Wistar rat assessed as inhibition of passive cutaneous anaphylaxis at Tmax
Assay type: functional

| SMILES | ED50 |
| --- | --- |
| COc1ccc2c(c1)C(=O)C(O)=C([N+](=O)[O-])C2=O | 51.3 µmol/kg |
| O=C1C(O)=C([N+](=O)[O-])C(=O)c2cc3c(cc21)CCCC3 | 7.3 µmol/kg |
| CCc1cc2c(cc1CC)C(=O)C([N+](=O)[O-])=C(O)C2=O | 27.3 µmol/kg |
| Cc1ccc2c(c1)C(=O)C(O)=C([N+](=O)[O-])C2=O | 181 µmol/kg |
| Cc1cccc2c1C(=O)C(O)=C([N+](=O)[O-])C2=O | 76.2 µmol/kg |
| O=C1C(O)=C([N+](=O)[O-])C(=O)c2ccc(Br)cc21 | > 500 µmol/kg |
| O=C1C(O)=C([N+](=O)[O-])C(=O)c2ccc(F)cc21 | > 500 µmol/kg |
| O=C(O)c1cc(=O)c2c(OCC(O)COc3cccc4oc(C(=O)O)cc(=O)c34)cccc2o1 [CROMOLYN SODIUM] | 13.1 µmol/kg |
| Cc1ccc2c(c1)C(=O)C([N+](=O)[O-])=C(O)C2=O | 63.9 µmol/kg |
| COc1cc2c(cc1OC)C(=O)C([N+](=O)[O-])=C(O)C2=O | 42.8 µmol/kg |
| O=C1C([N+](=O)[O-])=C(O)C(=O)c2c(O)cccc21 | > 500 µmol/kg |
| O=C1C(O)=C([N+](=O)[O-])C(=O)c2ccc(-c3ccccc3)cc21 | > 500 µmol/kg |
| Cc1cc2c(cc1C)C(=O)C([N+](=O)[O-])=C(O)C2=O | 11 µmol/kg |
| CCOc1ccc2c(c1)C(=O)C(O)=C([N+](=O)[O-])C2=O | 68.2 µmol/kg |
| O=C1C(O)=C([N+](=O)[O-])C(=O)c2ccccc21 | 141 µmol/kg |

Test system: Rattus norvegicus
Experiment: Antiallergic activity in po dosed Wistar rat assessed as inhibition of passive cutaneous anaphylaxis administered 10 mins prior to antigen-challenge
Assay type: functional

| SMILES | ED50 |
| --- | --- |
| O=C1C(O)=C([N+](=O)[O-])C(=O)c2cc3c(cc21)CCCC3 | 100 µmol/kg |
| Cc1cc2c(cc1C)C(=O)C([N+](=O)[O-])=C(O)C2=O | 100 µmol/kg |
